According to article PMC6311893, “Computational prediction of plasma protein binding of cyclic peptides from small molecule experimental data using sparse modeling techniques” (BMC Bioinformatics, 2018):
Positions of bridges follow the written chain, without caps; N, C: chain ends. Residues, ends and D or L forms follow the SMILES beside them.

Tested on: human plasma
Experiment: in vitro
Format: in vitro ADME
Settings: 6 h, 1 μM
Method: (§1) As the number of publicly available data of cyclic peptide drugs is small compared to that of small molecule, we additionally designed and experimented with 16 cyclic peptides composed exclusively of natural amino acids. First, linear peptides were synthesized. Then, circularization was achieved by making a disulfide bond between N-terminal and C-terminal cysteine residues and confirmed by TOF/MS and HPLC analyses. Human PPB values fb were determined by the equilibrium dialysis method. Frozen human plasma was thawed immediately at room temperature. Then, the plasma was centrifuged at 3220 g for 10 min to remove clots and the supernatant was collected into a fresh tube. The working solutions of test compounds were prepared in DMSO at a concentration of 200 μM. Then, 3 μL of the working solution was removed for mixing with 597 μL of human plasma to achieve a final concentration of 1 μM (0.5% DMSO). The plasma samples were vortexed thoroughly. The dialysis membranes (HTD 96a/b Dialysis Membrane Strips MWCO 12-14 K, Cat. #1101, Batch# 1141 (12–17)) were soaked in ultrapure water for 60 min to separate the strips, then in 20% ethanol for 20 min, and finally in the dialysis buffer (100 mM sodium phosphate and 150 mM NaCl) for 20 min. The dialysis apparatus was assembled according to the manufacturer’s instructions. Each cell was filled with the spiked plasma sample and dialyzed against equal volume of the dialysis buffer. The assay was performed in duplicate. The dialysis plate was sealed and incubated in an incubator at 37 °C with 5% CO2 at 100 rpm for 6 h. At the end of incubation, the seal was removed and 50 μL of samples from both buffer and plasma chambers were transferred to wells of a 96-well plate. 50 μL of blank plasma was added to each buffer sample and an equal volume of phosphate buffered saline was supplemented to the collected plasma sample. […] Samples in the plate were vortexed for 5 min and centrifuged at 3220 g for 30 min at 4 °C. Then, the supernatant was transferred to a new 96-well plate with 100 μL or 200 μL water (depending on the LC-MS signal response and peak shape) for LC-MS/MS analysis.

Row | Structure (SMILES) | Exp. PPB (fb*)
1 | N=C(N)NCCC[C@@H]1NC(=O)[C@@H]2CCCN2C(=O)[C@H](CC(N)=O)NC(=O)[C@H](CCC(N)=O)NC(=O)[C@H](Cc2ccccc2)NC(=O)[C@H](Cc2ccc(O)cc2)NC(=O)[C@@H](N)CSSC[C@@H](C(=O)O)NC(=O)CNC1=O [Pep.1] (H-CYFQNPRGC-OH; disulfide 1-9) | 0.242

Tested on: not listed separately
Experiment: in vitro
Format: in vitro ADME
Settings: human, plasma, Exp. PPB (fb*)
Method: as §1

Row | Structure (SMILES) | fraction unbound at 6 h, 1 μM
2 | N=C(N)NCCC[C@@H]1NC(=O)[C@@H]2CCCN2C(=O)[C@H](CC(N)=O)NC(=O)[C@H](CCC(N)=O)NC(=O)[C@H](Cc2ccccc2)NC(=O)[C@H](Cc2ccc(O)cc2)NC(=O)[C@@H](N)CSSC[C@@H](C(=O)O)NC(=O)CNC1=O [Pep.1] (H-CYFQNPRGC-OH; disulfide 1-9) | 0.76
3 | CC(C)[C@@H]1NC(=O)[C@H](C)NC(=O)[C@H](CO)NC(=O)[C@H](Cc2ccc(O)cc2)NC(=O)[C@H](C(C)C)NC(=O)[C@H](Cc2ccccc2)NC(=O)[C@@H](N)CSSC[C@@H](C(=O)O)NC1=O [Pep.15] (H-CFVYSAVC-OH; disulfide 1-8; N-terminus and C-terminus assumed) | 0.847
4 | C[C@@H](O)[C@@H]1NC(=O)[C@H](CCCCN)NC(=O)[C@H](Cc2c[nH]c3ccccc23)NC(=O)[C@H](Cc2ccccc2)NC(=O)[C@H](Cc2ccccc2)NC(=O)[C@@H](N)CSSC[C@@H](C(=O)O)NC(=O)[C@H]([C@@H](C)O)NC1=O [Pep.6] (H-CFFWKTTC-OH; disulfide 1-8; N-terminus and C-terminus assumed) | 0.737
5 | CC(C)C[C@@H]1NC(=O)[C@H](CC(C)C)NC(=O)[C@H](CCCCN)NC(=O)[C@@H](N)CSSC[C@@H](C(=O)O)NC(=O)[C@H]([C@@H](C)O)NC(=O)[C@H](CCCCN)NC(=O)[C@H](CCCCN)NC1=O [Pep.7] (H-CKLLKKTC-OH; disulfide 1-8; N-terminus and C-terminus assumed) | 1
6 | CC(C)[C@@H]1NC(=O)[C@H](CCCCN)NC(=O)[C@H](Cc2c[nH]c3ccccc23)NC(=O)[C@H](C)NC(=O)[C@@H](N)CSSC[C@@H](C(=O)O)NC(=O)[C@H]([C@@H](C)O)NC1=O [Pep.3] (H-CAWKVTC-OH; disulfide 1-7; N-terminus and C-terminus assumed) | 1
7 | CC(C)C[C@@H]1NC(=O)[C@H](Cc2c[nH]c3ccccc23)NC(=O)[C@H](CC(=O)O)NC(=O)[C@H](CC(=O)O)NC(=O)[C@H](Cc2ccccc2)NC(=O)[C@H](CO)NC(=O)[C@@H](N)CSSC[C@@H](C(=O)O)NC(=O)[C@H](C)NC1=O [Pep.12] (H-CSFDDWLAC-OH; disulfide 1-9; N-terminus and C-terminus assumed) | 0.2
8 | CC[C@H](C)[C@@H]1NC(=O)[C@H](Cc2ccc(O)cc2)NC(=O)[C@@H](N)CSSC[C@@H](C(=O)O)NC(=O)CNC(=O)[C@H](CC(C)C)NC(=O)[C@@H]2CCCN2C(=O)[C@H](CC(N)=O)NC(=O)[C@H](CCC(N)=O)NC1=O [Pep.2] (H-CYIQNPLGC-OH; disulfide 1-9; N-terminus and C-terminus assumed) | 0.995
9 | CC[C@H](C)[C@@H]1NC(=O)[C@H](CCCNC(=N)N)NC(=O)[C@@H](N)CSSC[C@@H](C(=O)O)NC(=O)[C@H](Cc2ccc(O)cc2)NC(=O)[C@H](CCCNC(=N)N)NC(=O)[C@H](CCCCN)NC1=O [Pep.16] (H-CRIKRYC-OH; disulfide 1-7; N-terminus and C-terminus assumed) | 0.849
10 | CC(C)[C@@H]1NC(=O)[C@H](Cc2c[nH]c3ccccc23)NC(=O)[C@@H](N)CSSC[C@@H](C(=O)O)NC(=O)[C@H](CCC(=O)O)NC(=O)[C@H](Cc2ccccc2)NC(=O)[C@H](CCC(N)=O)NC(=O)[C@@H]2CCCN2C(=O)[C@H](Cc2c[nH]cn2)NC1=O [Pep.10] (H-CWVHPQFEC-OH; disulfide 1-9; N-terminus and C-terminus assumed) | 0.633
11 | N[C@H]1CSSC[C@@H](C(=O)O)NC(=O)[C@H](Cc2ccc(O)cc2)NC(=O)[C@H](Cc2ccc(O)cc2)NC(=O)[C@H](Cc2ccc(O)cc2)NC(=O)[C@H](Cc2ccc(O)cc2)NC(=O)[C@H](Cc2ccc(O)cc2)NC(=O)[C@H](Cc2ccc(O)cc2)NC(=O)[C@H](Cc2ccc(O)cc2)NC1=O [Pep.8] (H-CYYYYYYYC-OH; disulfide 1-9; N-terminus and C-terminus assumed) | 0.145
